# Where two headings read alike, the source gives them in different places.
# Columns and labels:
# human PRMT8 = human PRMT8 (Homo sapiens, UniProt Q9NR22); test: PRMT8 Biochemical Assay; details: PRMT8 IC50 (uM), peptide substrate, 3H-SAM Flashplate assay
# Text: S-adenosylmethionine (SAM), S-adenosylhomocysteine (SAH), bicine, Tween20, dimethylsulfoxide (DMSO), bovine skin gelatin (BSG), isopropyl-3-D-thiogalactopyranoside (IPTG), and Tris(2-carboxyethyl)phosphine hydrochloride solution (TCEP) were purchased from Sigma-Aldrich at the highest level of purity possible. ^3H-SAM was purchase from American Radiolabeled Chemicals with a specific activity of 80 Ci/mmol. 384-well streptavidin Flashplates were purchased from PerkinElmer.
# E. coli (BL21(DE3) Gold, Stratagene) made competent by the CaCl2 method were transformed with the PRMT8 construct and ampicillin selection. Protein over-expression was accomplished by growing the PRMT8 expressing E. coli clone and inducing expression with 0.3 mM IPTG at 16° C. The culture was grown for 12 hours, harvested by centrifugation, and stored at −80° C. for purification.
# GST-tagged PRMT8 was eluted with 50 mM Tris, 2 mM glutathione, pH 7.8. Pooled fractions were cleaved by thrombin (10U) and dialysed in buffer A. GST was removed by reloading the cleaved protein sample onto glutathione sepharose column and PRMT8 was collected in the flow-through fractions. PRMT8 was purified further by ceramic hydroxyapatite chromatography. The column was washed with 50 mM phosphate buffer, 100 mM NaCl, 5% glycerol, 5 mM β-mercaptoethanol, pH 7.8 and PRMT8 was eluted by 100 mM phosphate in the same buffer. Protein was concentrated and buffer was exchanged to 50 mM Tris, 300 mM NaCl, 10% glycerol, 5 mM β-mercaptoethanol, pH 7.8 by ultrafiltration.
# General Procedure for PRMT8 Enzyme Assays on Peptide Substrates.
# The assays were all performed in a buffer consisting of 20 mM Bicine (pH=7.6), 1 mM TCEP, 0.005% BSG, and 0.002% Tween 20, prepared on the day of use. […] DMSO (1 ul) was added to Columns 11, 12, 23, 24, rows A-H for the maximum signal control and 1 ul of SAH, a known product and inhibitor of PRMT8, was added to columns 11, 12, 23, 24, rows I-P for the minimum signal control. A cocktail (40 ul) containing the PRMT8 enzyme was added by Multidrop Combi (Thermo-Fisher). The compounds were allowed to incubate with PRMT8 for 30 min at room temperature, then a cocktail (10 ul) containing ^3H-SAM and peptide was added to initiate the reaction (final volume=51 ul). […] The assays were stopped by the addition of non-radiolabeled SAM (10 ul) to a final concentration of 400 uM, which dilutes the ^3H-SAM to a level where its incorporation into the peptide substrate is no longer detectable. 50 ul of the reaction in the 384-well polypropylene plate was then transferred to a 384-well Flashplate and the biotinylated peptides were allowed to bind to the streptavidin surface for at least 1 hour before being washed once with 0.1% Tween20 in a Biotek ELx405 plate washer. The plates were then read in a PerkinElmer TopCount plate reader to measure the quantity of ^3H-labeled peptide bound to the Flashplate surface, measured as disintegrations per minute (dpm) or alternatively, referred to as counts per minute (cpm).
# Where dpm=disintegrations per minute, cmpd=signal in assay well, and min and max are the respective minimum and maximum signal controls.
# Where top and bottom are the normally allowed to float, but may be fixed at 100 or 0 respectively in a 3-parameter fit. The Hill Coefficient normally allowed to float but may also be fixed at 1 in a 3-parameter fit. Y is the % inhibition and X is the compound concentration.
# human PRMT6 = molecular target: T1, human PRMT6 (Homo sapiens, UniProt Q96LA8); test: PRMT6 Biochemical Assay
# T1 construct: Flag-PRMT6-His; made in house; host or cells: HEK 293F cells (BacMam baculovirus, pFastBacMam)
# human PRMT1 = molecular target: T2, human PRMT1 (Homo sapiens, UniProt Q99873); test: PRMT1 Biochemical Assay; details: peptide substrate, 3H-SAM Flashplate assay; read-out: PRMT1 IC50
# T2 construct: GST-tagged PRMT1; made in house; host or cells: High Five insect cells (baculovirus, pFastBac1)
# T2 sequence (Q99873 with tags, fused parts or gaps): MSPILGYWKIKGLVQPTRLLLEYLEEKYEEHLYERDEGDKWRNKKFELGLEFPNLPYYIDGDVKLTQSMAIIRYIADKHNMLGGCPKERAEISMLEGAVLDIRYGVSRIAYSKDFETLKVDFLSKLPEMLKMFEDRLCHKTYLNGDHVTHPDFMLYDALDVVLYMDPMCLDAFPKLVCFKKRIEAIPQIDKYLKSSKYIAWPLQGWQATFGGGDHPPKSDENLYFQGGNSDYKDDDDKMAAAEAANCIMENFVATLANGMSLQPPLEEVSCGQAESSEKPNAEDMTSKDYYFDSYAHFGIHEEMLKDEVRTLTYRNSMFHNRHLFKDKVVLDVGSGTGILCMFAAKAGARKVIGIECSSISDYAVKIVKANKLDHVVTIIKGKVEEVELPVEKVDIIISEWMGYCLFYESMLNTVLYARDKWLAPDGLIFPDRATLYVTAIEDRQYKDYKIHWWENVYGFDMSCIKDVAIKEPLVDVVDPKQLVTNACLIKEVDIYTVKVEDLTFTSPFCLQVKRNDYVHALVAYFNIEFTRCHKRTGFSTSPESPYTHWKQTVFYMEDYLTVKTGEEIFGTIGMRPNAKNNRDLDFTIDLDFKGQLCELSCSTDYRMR
# How it was run: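 GST-tagged PRMT1 from baculovirus-infected cells, preincubated with compounds 30 min at room temperature in 20 mM Bicine pH 7.6, 1 mM TCEP, 0.005% BSG, 0.002% Tween 20. Reaction started with ³H-SAM plus biotinylated peptide, stopped with 300 µM cold SAM.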
# [1] = test system: mono-methyl arginine in RKO cells; test: RKO Methylation Assay, In Cell Western (ICW); assay type: cell-based; details: 72 hours
# [2] = peptide substrate, 3H-SAM Flashplate assay, read-out: PRMT6 IC50
# T1 sequence (Q96LA8 with tags, fused parts or gaps): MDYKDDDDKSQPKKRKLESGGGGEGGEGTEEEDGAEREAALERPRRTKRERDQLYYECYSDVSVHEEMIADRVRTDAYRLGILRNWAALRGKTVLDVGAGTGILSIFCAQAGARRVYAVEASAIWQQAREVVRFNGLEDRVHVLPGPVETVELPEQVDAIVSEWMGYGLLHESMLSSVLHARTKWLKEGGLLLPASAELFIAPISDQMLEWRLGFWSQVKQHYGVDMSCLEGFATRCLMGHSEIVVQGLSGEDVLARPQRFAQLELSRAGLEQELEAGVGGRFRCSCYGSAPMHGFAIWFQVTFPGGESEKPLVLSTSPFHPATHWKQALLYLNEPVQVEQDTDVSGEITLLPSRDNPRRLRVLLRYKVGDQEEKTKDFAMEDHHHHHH
# Sequence of human PRMT8 (Q9NR22 whole entry): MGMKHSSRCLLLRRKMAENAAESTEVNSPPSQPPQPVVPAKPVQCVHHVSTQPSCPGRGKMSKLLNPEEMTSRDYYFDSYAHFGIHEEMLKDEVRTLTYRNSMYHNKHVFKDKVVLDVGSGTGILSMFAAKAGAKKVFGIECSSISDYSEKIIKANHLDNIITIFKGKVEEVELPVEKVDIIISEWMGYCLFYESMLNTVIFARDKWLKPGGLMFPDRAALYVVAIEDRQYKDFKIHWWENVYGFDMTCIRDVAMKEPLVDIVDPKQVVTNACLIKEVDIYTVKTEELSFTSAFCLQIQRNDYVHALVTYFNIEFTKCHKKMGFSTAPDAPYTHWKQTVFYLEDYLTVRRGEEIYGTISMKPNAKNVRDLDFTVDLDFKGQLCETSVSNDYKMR
SMILES,IC50 (human PRMT8) [µM],IC50 (human PRMT6; [2]) [µM],IC50 (human PRMT1) [nM],ICW EC30 [1] [nM],IC50 (human PRMT6; PRMT6 IC50 (uM)) [µM]
CNCCN(C)Cc1c[nH]nc1-c1cc(F)c(OCC2CCC2)c(C(F)(F)F)c1 [Compound 5],0.0122,0.00685,4.58,468,
CNCCN(C)Cc1c[nH]nc1-c1ccc(N(C)CCOc2ccc(OC)cc2)cc1 [Compound 41],0.0334,0.00896,8.8,351.4,
CNCCN(C)Cc1c[nH]nc1-c1ccc(OCCOc2ccc(C(O)CO)cc2)cc1 (stereo not shown) [Compound 21],0.026,0.00616,6.23,3184,
CNCCN(C)Cc1c[nH]nc1-c1cc(OCCC(C)(C)O)cc(C(F)(F)F)c1 [Compound 93],0.326,3.38,24.8,4550,
CNCCN(C)Cc1cnn(C)c1-c1cccc(CC(C)C)c1 [Compound 129],0.0877,0.219,47.5,7415,
CNCCN(C)Cc1c[nH]nc1-c1ccc2oc(C(C)C)nc2c1 [Compound 81],0.0947,0.0445,19.9,927,
CNCCN(C)Cc1c[nH]nc1-c1cc(OCC2CCOC2)cc(C(F)(F)F)c1 (stereo not shown) [Compound 104],0.226,,33.3,1467,2.9
CCN(CCOc1ccc(OC)cc1)c1ccc(-c2n[nH]cc2CN(C)CCNC)cc1 [Compound 20],0.0199,0.0169,6.16,336.2,
CNCCN(C)Cc1c[nH]nc1-c1ccc(OCCOc2ccc(OCc3ccccc3)cc2)cc1 [Compound 9],0.024,0.00222,5.12,329.1,
CNCCN(C)Cc1c[nH]nc1-c1ccc(OCCOc2cccc(OCCN3CCOCC3)c2)cc1 [Compound 8],0.00939,0.00449,4.91,233.7,
CNCCN(C)Cc1c[nH]nc1-c1ccc(N(C)CCOc2cccc(OC)c2)cc1 [Compound 57],0.042,0.00902,11.8,757.7,
CNCCN(C)Cc1c[nH]nc1-c1ccc(OCC2COC2)cc1 [Compound 91],0.282,0.0322,24.7,3058,
CNCCN(C)Cc1c[nH]nc1-c1cnc(OCCOC)c(C(F)(F)F)c1 [Compound 79],0.171,0.105,19.8,2611,
CNCCN(C)Cc1c[nH]nc1-c1ccc(OCCOc2ccc(OCC(C)C)cc2)cc1 [Compound 40],0.0247,0.00739,8.34,505.1,
CNCCN(C)Cc1c[nH]nc1-c1ccc(OCCCOC)c(OCC2CCOCC2)c1 [Compound 87],0.424,0.0783,22.7,6199,
CNCCN(C)Cc1c[nH]nc1-c1ccc(N(C)CCCOc2ccc(OC)cc2)cc1 [Compound 12],0.0264,0.0146,5.25,449.8,
C=C(C)COc1c(Cl)cc(-c2n[nH]cc2CN(C)CCNC)cc1C(F)(F)F [Compound 39],0.0122,0.0295,8.31,439,
CNCCN(C)Cc1ccnn1C1CCC2(CCCO2)CC1 (stereo not shown) [Compound 63],0.0445,0.0317,13.1,172.7,
CNCCN(C)Cc1c[nH]nc1-c1ccc(S(C)(=O)=O)cc1 [Compound 92],0.043,0.0309,24.7,2126,

SMILES,IC50 (human PRMT8) [µM],IC50 (human PRMT6; [2]) [µM],IC50 (human PRMT1) [nM],ICW EC30 [1] [nM],IC50 (human PRMT6; PRMT6 IC50 (uM)) [µM]
CCC(CC)Oc1ccc(-n2ncc(C)c2CN(C)CCNC)cc1 [Compound 114],0.0836,0.59,38.1,1855,
CNCCN(C)Cc1c[nH]nc1-c1ccc(CC(C)C)cc1 [Compound 37],0.0136,,8.04,82,0.0169
CNCCN(C)Cc1c[nH]nc1-c1ccc(N2CCCC2)nc1 [Compound 78],0.0309,,18.3,757.1,0.0395
CNCCN(C)Cc1cnn(C)c1-c1ccc(OC2CCOCC2)cc1 [Compound 88],0.0267,0.0235,23,1236,
CNCCN(C)Cc1c[nH]nc1-c1ccc(OCCOc2ccc(OC(F)(F)F)cc2)cc1 [Compound 140],0.0526,0.00703,6.83,470,
CNCCN(C)Cc1c[nH]nc1-c1ccc(C#N)cc1 [Compound 74],0.0231,,16.1,541,0.027
CNCCN(C)Cc1c[nH]nc1-c1cc(OC2CCOCC2)cc(C(F)(F)F)c1 [Compound 123],0.376,1.47,43.9,18364,
CNCCN(C)Cc1c[nH]nc1-c1ccc(N(C)C2CCOCC2)nc1 [Compound 117],0.317,2.32,39.2,8433,
CNCCN(C)Cc1c[nH]nc1-c1cc(C(=O)NCCOC)cc(C(F)(F)F)c1 [Compound 101],0.342,2.66,30.9,11123,
CNCCN(C)Cc1c[nH]nc1-c1cc(F)c(OCC2CCOCC2)c(C(F)(F)F)c1 [Compound 116],0.118,,39.1,3806,0.0184
CNCCN(C)Cc1c[nH]nc1-c1cc(Cl)c(OCC(C)C)c(C(F)(F)F)c1 [Compound 56],0.0168,0.0435,11.5,765,
CNCCN(C)Cc1c[nH]nc1-c1cc(CC(C)C)cc(OCCOC)c1 [Compound 71],0.0452,4.39,15.3,680,
CNCCN(C)Cc1c[nH]nc1-c1ccc(OCCCOC)c(OCC2CCOC2)c1 (stereo not shown) [Compound 68],0.295,0.038,14.8,3454,
CNCCN(C)Cc1c[nH]nc1-c1cc(OCCCO)cc(C(F)(F)F)c1 [Compound 130],0.3,0.619,48.9,11844,
CNCCN(C)Cc1c[nH]nc1-c1ccc(OC2CC(O)C2)cc1 (stereo not shown) [Compound 85],0.0853,0.0144,21.3,3594,
CNCCN(C)Cc1ccnn1-c1cc(OCCOC)cc(C(F)(F)F)c1 [Compound 154],8.45,> 10,2030,>20000,
CNCCN(C)Cc1c[nH]nc1-c1ccc(OCCOc2ccc(C)cc2)cc1 [Compound 42],0.0514,0.00498,8.9,185,
CNCCN(C)Cc1ccnn1-c1ccc(COC)cc1 [Compound 44],0.0235,0.0565,9.25,130,

# — patent publication US20190077795A1, “ARGININE […] INHIBITORS AND USES THEREOF” (Epizyme, Inc., priority 2014, published 2019)
